Data on 12 molecules can be found in patent US11752132B2, “Materials and methods for improving gastrointestinal function” (University of Florida Research Foundation, Incorporated, priority 2010, dated 2023).

The test system of one data set is small intestine mucosa. The data set can be described thus: Ussing chamber isotope flux studies, unidirectional and net flux of Na^+ and Cl^−. The format is in vitro ADME, mice. On the set-up: key to Na Flux Jms / Na Flux Jsm / Na Flux Jnet: fluxes in μmol·h^−1·cm^−2. As for the experimental part: Following exsanguinations, jejunal segment was obtained by excluding the distal 12 cm of small intestine adjacent to the caecum. This segment was washed and flushed in ice-cold Ringer's solution before the mucosa was stripped from the underlying muscular layers (Zhang, Ameen et al. 2007). The mucosa was mounted between the 2 halves of an Ussing-type Lucite chamber with an area of 0.30 cm^2 (P2304, Physiologic instruments, San Diego, Calif. 92128 USA), and electrical parameters were recorded using a voltage/current clamp device (VCC MC-8, Physiologic instruments, San Diego, Calif. 92128 USA) (Vidyasagar et al. 2005; Vidyasagar et al. 2004; Zhang et al. 2007; Vidyasagar and Ramakrishna 2002).
Irradiation decreases Jms in a dose-dependent manner, and results in decreased net Na^+ absorption (JNetNa). Jsm far exceeds Jms at doses 7 and 9 Gy, causing net secretion. In addition, mice stool samples became loose or poorly formed at high dose irradiation, further evidencing decreased absorption and increased secretion of electrolytes. […] Decrease in Cl^− absorption was due to decrease in JmsCl^−.
In this Example, isotope (^22Na and ^36Cl) substitution studies are performed to determine the basal Na^+ and Cl^− movement. Briefly, ^22Na and ^36Cl are added either to the mucosal or to the serosal side. 0.5 ml samples are collected from the cold side at the end of every 30 minutes. Unidirectional fluxes are calculated using standard formula, and expressed as μmol·h^−1·cm^−2. Net flux (JNet) is calculated as the difference between Jms and Jsm fluxes across tissue pairs. Experiments are performed under short-circuit conditions.

Data set [1] relates to mice with injury to small intestine mucosa. The data set can be described thus: Oral administration of candidate nutrients in radiation, chemotherapy and Crohn's disease models. The note with it: for survival: oral feeding of an irradiated subject; for effect of oral administration on small intestine healing, paracellular conductance, electrolyte absorption, survival: radiation, chemotherapy and Crohn's disease models, each amino acid. As for the experimental part:
In a Crohn's disease model, mice are injected with anti-CD3 mAb (acute inflammatory model to mimic conditions of Crohn's disease).
The alterations of absorptive capacity of nutrients are determined using disease models with injury to small intestine mucosa, i.e., the radiation model, chemotherapy model, and the Crohn's disease model. Specifically, a candidate nutrient is orally administered to control mice and mice that received irradiation, chemotherapy, and anti-CD3 mAb, respectively. In addition, compositions containing various combinations of the candidate nutrients are orally administered.
To determine the absorptive capacity of each nutrient, bioelectric measurements are performed using an Ussing chamber. The measurements include: a) the sodium coupled-amino acid current (ISC) and changes in conductance, b) changes in saturation kinetics of each nutrient and changes in the ISC following the administration of each nutrient; and c) the electrolyte absorption studies using isotope flux studies in the presence and absence of the specific candidate nutrient.

In data set [2] the test system is jejunum (HCO3^− secretion). The data set can be described thus: pH stat measurement of HCO3^− secretion in stripped jejunal sheets. The format is cell-based, mice. Particulars: 1 mM HOE694 on bath side; 8.4±0.4 without. How it is done:
A Bi-burette TIM 856 (Radiometer Analytical SAS, Villeurbanne, France) was used to measure HCO3^− secretion in stripped jejunal sheets (Vidyasagar et al. 2005; Vidyasagar et al. 2004; Zhang et al. 2007). Automated pumps maintained a constant pH for luminal solution through the addition of 0.01 μl of 0.025 M sulfuric acid (H2SO4). Standard-to-stat pH calibration was established by adding a known quantity of H2SO4 to a weak buffering solution, which contains an increasing concentration of HCO3^− to produce a linear titration curve.
Jejunal tissues were exposed to a buffered solution on the bath side (serosal side), while the luminal side was exposed to an HCO3^− free, low-buffered solution (0.1-mM HEPES (4-(2-hydroxyethyl)-1-piperazineethanesulfonic acid) buffer, pH 7.4). The HCO3^− secretion was equivalent to the amount of acid added to the luminal solution to maintain the pH at 7.4 (or the stat pH). All experiments were performed under voltage-clamp conditions. HCO3^−-free solution was gassed with 100% O2 and HCO3^−-containing solution was gassed with 95% O2 and 5% CO2. The HCO3^− secretion was expressed as μeq h^−1·cm^−2 (Vidyasagar et al. 2005; Vidyasagar et al. 2004; Zhang et al. 2007).
After the tissue was mounted, HCO3^− secretions were initially present in the absence of bath HCO3^−, but rapidly fell towards 0 within 20-30 minutes. If bath HCO3^− was not present during the titration, the HCO3^− secretion remained close to 0. […] When inhibitors were added to the mucosal solution, the pH was adjusted and allowed to equilibrate for 30 minutes, until a steady rate of HCO3^− secretion was observed. When the inhibitor was added to the bath side, the tissue was also equilibrated for 30 minutes to achieve a steady rate of HCO3^− secretion (see Table 3).
All experiments were performed during the initial 1-hour steady-state period. 1 tissue from each animal was used for each experiment; only 1 experimental condition was studied with each tissue sample. All experiments were repeated for at least 4 times.

For the molecule `Cl` [Cl^−], the “Cl Flux Jms” value with small intestine mucosa (IR 0 Gy) is 17.3 ± 1.1; with small intestine mucosa (IR 1 Gy), 12.8 ± 0.9; in the data set with small intestine mucosa (IR 3 Gy), 16.8 ± 0.7; in the data set on small intestine mucosa (IR 5 Gy) it was 14.2 ± 1.2; in the data set on small intestine mucosa (IR 7 Gy) it was 7.1 ± 0.5; in the data set on small intestine mucosa (IR 9 Gy), −9.2 ± 0.8. For the same molecule, the “Cl Flux Jnet” value in the data set with small intestine mucosa (IR 0 Gy) was 10.2 ± 0.8; in the data set on small intestine mucosa (IR 1 Gy) it was 5.2 ± 0.9; with small intestine mucosa (IR 3 Gy), 7.5 ± 0.8; in the data set with small intestine mucosa (IR 5 Gy), 3.9 ± 0.7; in the data set with small intestine mucosa (IR 7 Gy), 0.3 ± 0.2; with small intestine mucosa (IR 9 Gy), −9.3 ± 0.9. Besides, the “Cl Flux Jsm” value in the data set with small intestine mucosa (IR 0 Gy) turned out to be 7.1 ± 0.6; in the data set with small intestine mucosa (IR 1 Gy) it was 7.6 ± 1.3; in the data set with small intestine mucosa (IR 3 Gy) it was 9.3 ± 0.8; in the data set on small intestine mucosa (IR 5 Gy), 10.3 ± 0.9; in the data set with small intestine mucosa (IR 7 Gy), 6.9 ± 0.3; in the data set on small intestine mucosa (IR 9 Gy), 0.1 ± 0.1.
For `N[C@@H](Cc1ccc(O)cc1)C(=O)O` [tyrosine], in data set [1], the survival result is “prolongs survival” and the “effect of oral administration on small intestine healing, paracellular conductance, electrolyte absorption, survival” value (shortened to “effect of oral administration”) is reported as “improve small intestine healing, reduces paracellular conductance (thereby improving small intestine mucosal barrier mechanism), increases absorption of electrolytes, and/or improves survival in animals”.
For the molecule `N[C@@H](CC(=O)O)C(=O)O` [aspartic acid], in data set [1], the survival result is listed as “prolongs survival” and the “effect of oral administration” value was “improve small intestine healing, reduces paracellular conductance (thereby improving small intestine mucosal barrier mechanism), increases absorption of electrolytes, and/or improves survival in animals”.
As to `NCC(=O)O` [glycine], in data set [1], the survival entry is “prolongs survival” and the “effect of oral administration” value is listed as “improve small intestine healing, reduces paracellular conductance (thereby improving small intestine mucosal barrier mechanism), increases absorption of electrolytes, and/or improves survival in animals”.
In the case of `CC[C@H](C)[C@H](N)C(=O)O` [isoleucine], in data set [1], the survival entry is listed as “prolongs survival” and the “effect of oral administration” value was “improve small intestine healing, reduces paracellular conductance (thereby improving small intestine mucosal barrier mechanism), increases absorption of electrolytes, and/or improves survival in animals”.
Turning to `CC(C)[C@H](N)C(=O)O` [valine], in data set [1], the survival result was “prolongs survival” and the “effect of oral administration” value is listed as “improve small intestine healing, reduces paracellular conductance (thereby improving small intestine mucosal barrier mechanism), increases absorption of electrolytes, and/or improves survival in animals”.
In the case of `NC(=O)C[C@H](N)C(=O)O` [asparagine], in data set [1], the survival entry is recorded as “prolongs survival” and the “effect of oral administration” value was “improve small intestine healing, reduces paracellular conductance (thereby improving small intestine mucosal barrier mechanism), increases absorption of electrolytes, and/or improves survival in animals”.
On to `N[C@@H](Cc1c[nH]c2ccccc12)C(=O)O` [tryptophan], for which, in data set [1], the survival entry is “prolongs survival” and the “effect of oral administration” value is given as “improve small intestine healing, reduces paracellular conductance (thereby improving small intestine mucosal barrier mechanism), increases absorption of electrolytes, and/or improves survival in animals”.
As to `CS(=O)(=O)c1cc(C(=O)NC(=N)N)ccc1N1CCCCC1.Cl` [HOE694, 3-methylsulphonyl-4-piperidinobenzoyl, guanidine hydrochloride], the “cAMP-stimulated HCO3^− secretion after HOE694” value in data set [2] turned out to be 7.2±0.9 μeq·h^−1·cm^−2.
In the case of `N[C@@H](CO)C(=O)O` [serine], in data set [1], the survival entry is given as “prolongs survival” and the “effect of oral administration” value is given as “improve small intestine healing, reduces paracellular conductance (thereby improving small intestine mucosal barrier mechanism), increases absorption of electrolytes, and/or improves survival in animals”.
Regarding `[Na+]` [Na^+], the “Na Flux Jms” value in the data set with small intestine mucosa (IR 0 Gy) turned out to be 16.4 ± 0.9; in the data set on small intestine mucosa (IR 1 Gy), 15.6 ± 1; with small intestine mucosa (IR 3 Gy), 6.8 ± 0.7; with small intestine mucosa (IR 5 Gy), 5.2 ± 0.6; in the data set with small intestine mucosa (IR 7 Gy), 4.8 ± 0.4; in the data set with small intestine mucosa (IR 9 Gy) it was 4.3 ± 0.7. The “Na Flux Jnet” value is reported as 9.8 ± 0.8 in the data set with small intestine mucosa (IR 0 Gy); 8.6 ± 0.9 in the data set with small intestine mucosa (IR 1 Gy); 2.6 ± 0.5 in the data set on small intestine mucosa (IR 3 Gy); 0.4 ± 0.2 in the data set with small intestine mucosa (IR 5 Gy); −0.6 ± 0.3 with small intestine mucosa (IR 7 Gy); −0.4 ± 0.2 with small intestine mucosa (IR 9 Gy). Besides, the “Na Flux Jsm” value was 7.1 ± 0.8 in the data set on small intestine mucosa (IR 0 Gy); 7.1 ± 1.1 in the data set with small intestine mucosa (IR 1 Gy); 3.5 ± 0.3 in the data set on small intestine mucosa (IR 3 Gy); 4.8 ± 0.4 with small intestine mucosa (IR 5 Gy); 5.4 ± 0.4 in the data set on small intestine mucosa (IR 7 Gy); 4.7 ± 0.6 with small intestine mucosa (IR 9 Gy).
Turning to `C[C@@H](O)[C@H](N)C(=O)O` [threonine], in data set [1], the survival result was “prolongs survival” and the “effect of oral administration” value was “improve small intestine healing, reduces paracellular conductance (thereby improving small intestine mucosal barrier mechanism), increases absorption of electrolytes, and/or improves survival in animals”.
